Reference: patent publication US10208047B2, “Tertiary alcohol imidazopyrazine BTK inhibitors” (Merck Sharp & Dohme Corp., priority 2014, dated 2019)
pIC50: −log10 of the molar value.

Molecular target: BTK enzyme (recombinant full-length BTK, hBTK) (Homo sapiens (Human), UniProt Q06187)
Test: Btk enzyme activity assay, LANCE TR-FRET
Format: biochemical
Details: 50 pM hBTK, 2 μM biotin-A5-peptide, 25 μM ATP, 60 minute compound & enzyme incubation, compound range 1 μM to 0.017 nM, read-out: BTK binding IC50
Method: Btk Enzyme Activity Assay Methods
BTK enzymatic activity was determined with the LANCE (Lanthanide Chelate Excite) TR-FRET (Time-resolved fluorescence resonance energy transfer) assay. In this assay, the potency (IC50) of each compound was determined from an eleven point (1:3 serial dilution; final compound concentration range in assay from 1 μM to 0.017 nM) titration curve using the following outlined procedure. To each well of a black non-binding surface Corning 384-well microplate (Corning Catalog #3820), 5 nL of compound (2000 fold dilution in final assay volume of 10 μL) was dispensed, followed by the addition of 7.5 μL of 1× kinase buffer (50 mM Hepes 7.5, 10 mM MgCl2, 0.01% Brij-35, 1 mM EGTA, 0.05% BSA & 1 mM DTT) containing 5.09 pg/μL (66.67 pM) of BTK enzyme (recombinant protein from baculovirus-transfected Sf9 cells: full-length BTK, 6HIS-tag cleaved). Following a 60 minute compound & enzyme incubation, each reaction was initiated by the addition of 2.5 μL 1× kinase buffer containing 8 μM biotinylated “A5” peptide (Biotin-EQEDEPEGDYFEWLE-NH2) (SEQ.ID.NO.: 1), and 100 μM ATP. The final reaction in each well of 10 μL consists of 50 pM hBTK, 2 μM biotin-A5-peptide, and 25 μM ATP. Phosphorylation reactions were allowed to proceed for 120 minutes. Reactions were immediately quenched by the addition of 20 uL of 1× quench buffer (15 mM EDTA, 25 mM Hepes 7.3, and 0.1% Triton X-100) containing detection reagents (0.626 nM of LANCE-Eu-W1024-anti-phosphoTyrosine antibody, PerkinElmer and 86.8 nM of Streptavidin-conjugated Dylight 650, Dyomics/ThermoFisher Scientific). After 60 minutes incubation with detection reagents, reaction plates were read on a PerkinElmer EnVision plate reader using standard TR-FRET protocol. Briefly, excitation of donor molecules (Eu-chelate:anti-phospho-antibody) with a laser light source at 337 nm produces energy that can be transferred to Dylight-650 acceptor molecules if this donor:acceptor pair is within close proximity. Fluorescence intensity at both 665 nm (acceptor) and 615 nm (donor) are measured and a TR-FRET ratio calculated for each well (acceptor intensity/donor intensity). IC50 values were determined by 4 parameter robust fit of TR-FRET ratio values vs. (Log10) compound concentrations.

Chain of BTK enzyme (recombinant full-length BTK, hBTK) (Q06187 whole entry): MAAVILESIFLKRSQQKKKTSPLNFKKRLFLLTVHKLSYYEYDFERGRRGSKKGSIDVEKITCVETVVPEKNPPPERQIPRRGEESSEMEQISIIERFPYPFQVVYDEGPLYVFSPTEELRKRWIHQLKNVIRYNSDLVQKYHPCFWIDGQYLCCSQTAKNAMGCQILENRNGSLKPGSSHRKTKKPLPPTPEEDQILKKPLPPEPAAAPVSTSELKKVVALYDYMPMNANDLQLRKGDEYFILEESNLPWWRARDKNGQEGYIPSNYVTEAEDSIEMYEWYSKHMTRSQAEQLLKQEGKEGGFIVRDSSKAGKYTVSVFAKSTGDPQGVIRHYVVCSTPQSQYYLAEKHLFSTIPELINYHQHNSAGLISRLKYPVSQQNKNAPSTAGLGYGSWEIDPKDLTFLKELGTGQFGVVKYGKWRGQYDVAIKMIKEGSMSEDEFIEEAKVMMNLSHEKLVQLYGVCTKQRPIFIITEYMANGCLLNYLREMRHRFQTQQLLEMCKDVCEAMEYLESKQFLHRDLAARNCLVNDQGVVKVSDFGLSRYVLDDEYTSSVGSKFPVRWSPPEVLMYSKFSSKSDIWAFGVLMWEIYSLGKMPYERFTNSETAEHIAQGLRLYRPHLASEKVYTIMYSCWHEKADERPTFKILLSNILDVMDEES

| pIC50 | SMILES |
| --- | --- |
| 8.21 | C[C@@](O)(c1ccc(-c2nc(C34CCC(C(=O)O)(CC3)C3CC34)n3ccnc(N)c23)cc1)c1cccc(C(F)(F)F)c1 (stereo partly drawn) [Example 22, 5-[8-amino-1-(4-{(1R)-1-hydroxy-1-[3-(trifluoromethyl)phenyl]ethyl}phenyl)imidazo[1,5-a]pyrazin-3-yl]tricyclo[3.2.2.0~2,4~]nonane-1-carboxylic acid] |
| 7.54 | CC(C)[C@@H]1CC[C@H](c2nc(-c3ccc([C@@](C)(O)c4cccc(C(F)(F)F)c4)cc3)c3c(N)nccn23)C[C@@H]1C(=O)O [Example 23, (1S,2S,5S)-5-[8-amino-1-(4-{(1R)-1-hydroxy-1-[3-(trifluoromethyl)phenyl]ethyl}phenyl)imidazo[1,5-a]pyrazin-3-yl]-2-(1-methylethyl)cyclohexanecarboxylic acid] |
| 8.20 | CC1(C)[C@H](c2nc(-c3ccc([C@@](C)(O)c4cccc(C(F)(F)F)c4)cc3)c3c(N)ncc(F)n23)CC[C@]1(C)C(=O)O [Example 24, (1S,3R)-3-[8-amino-5-fluoro-1-(4-{(1R)-1-hydroxy-1-[3-(trifluoromethyl)phenyl]ethyl}phenyl)imidazo[1,5-a]pyrazin-3-yl]-1,2,2-trimethylcyclopentanecarboxylic acid] |
| 7.40 | C[C@@](O)(c1ccc(-c2nc([C@H]3C[C@H]4CC[C@@H](C3)[C@H]4C(=O)O)n3ccnc(N)c23)cc1)c1cccc(C(F)(F)F)c1 [Example 25, (3-endo,8-syn)-3-[8-amino-1-(4-{(1R)-1-hydroxy-1-[3-(trifluoromethyl)phenyl]ethyl}phenyl)imidazo[1,5-a]pyrazin-3-yl]bicyclo[3.2.1]octane-8-carboxylic acid] |
| 7.47 | C[C@@](O)(c1ccc(-c2nc([C@@H]3C[C@H]4CC[C@@H](C3)[C@H]4C(=O)O)n3ccnc(N)c23)cc1)c1cccc(C(F)(F)F)c1 [Example 26, (3-exo,8-syn)-3-[8-amino-1-(4-{(1R)-1-hydroxy-1-[3-(trifluoromethyl)phenyl]ethyl}phenyl)imidazo[1,5-a]pyrazin-3-yl]bicyclo[3.2.1]octane-8-carboxylic acid] |
| 9.11 | CC1(C)[C@H](c2nc(-c3ccc([C@@](C)(O)c4cccc(C(F)F)c4)cc3)c3c(N)nccn23)CC[C@]1(C)C(=O)O [Example 27, (1S,3R)-3-[8-amino-1-(4-{(1R)-1-[3-(difluoromethyl)phenyl]-1-hydroxyethyl}phenyl)imidazo[1,5-a]pyrazin-3-yl]-1,2,2-trimethylcyclopentanecarboxylic acid] |
| 8.92 | CCOc1cc([C@@](C)(O)c2cccc(C(F)(F)F)c2)ccc1-c1nc([C@@H]2CC[C@](C)(C(=O)O)C2(C)C)n2ccnc(N)c12 [Example 28, (1S,3R)-3-[8-amino-1-(2-ethoxy-4-{(1S)-1-hydroxy-1-[3-(trifluoromethyl)phenyl]ethyl}phenyl)imidazo[1,5-a]pyrazin-3-yl]-1,2,2-trimethylcyclopentanecarboxylic acid] |
| 8.55 | CC(C)[C@]1(C(=O)O)CC[C@@H](c2nc(-c3ccc([C@@](C)(O)c4cccc(C(F)F)c4)cc3)c3c(N)ncc(Cl)n23)C1 [Example 29, (1S,3R)-3-[8-amino-5-chloro-1-(4-{(1R)-1-[3-(difluoromethyl)phenyl]-1-hydroxyethyl}phenyl)imidazo[1,5-a]pyrazin-3-yl]-1-(1-methylethyl)cyclopentanecarboxylic acid] |
| 7.49 | CC(C)[C@@]1(C(=O)O)CC[C@H](c2nc(-c3ccc([C@@](C)(O)c4cccc(C(F)F)c4)cc3)c3c(N)ncc(Cl)n23)C1 [Example 30, (1R,3S)-3-[8-amino-5-chloro-1-(4-{(1R)-1-[3-(difluoromethyl)phenyl]-1-hydroxyethyl}phenyl)imidazo[1,5-a]pyrazin-3-yl]-1-(1-methylethyl)cyclopentanecarboxylic acid] |
